Experimental data from patent US20070202163A1 (priority 2005, published 2007).
Entries after “also recorded” stand apart in the source; their conditions may differ. Structures can show the parent of a compound that is named as a salt. Where two headings read alike, the source gives them in different places.

Columns and labels:
[1] = 7.3 mg in 100 μl of a saturated solution of mannitol, monitored over 5 minutes
[2] = cited from earlier work
in vivo [3] = settings: for AUC(0-inf) / AUC(0-t) / Cmax / Tmax / half-life: both, NZW, rabbit, plasma
Experimental: Sublingual tablets or IM doses were administered using a Randomized Crossover study design over 5-consecutive weeks.
(§1) Animals were evaluated for viability once-daily throughout the study. Cageside clinical observations were performed twice-daily from the initiation of dosing until the end of treatment. Body weights were obtained upon receipt, on Study Day 1 and weekly thereafter.
Blood samples (approximately 1 mL/time point) were obtained from an indwelling arterial catheter placed approximately 30-minutes prior to initiation of sample collection. Samples were collected immediately prior to dosing (pre-dose baseline) and at approximately 5, 10, 15, 20, 30, 40, 60, 90, 120, and 180 minutes after dosing. At later time points, the samples were obtained by direct needle puncture or by removing the catheter and allowing blood to flow directly from the animal's ear artery into the blood collection tube.
Immediately after collection, the tube was inverted several times to disperse the anticoagulant and then placed on ice until centrifugation. The blood samples were centrifuged (˜2000×g for 10 minutes at 8° C.) within approximately 15-30 minutes of collection to separate the cellular and plasma fractions. The plasma fraction was harvested into screw-capped tubes and stored at approximately −70° C. (±10° C.) until analyzed. […] The remaining red blood cell fraction was discarded.
The method was validated based on the commercial method developed by ESA Biosciences, Inc. (Chelmsford, Mass.). All standards and reagents for the extraction and chromatography were purchased from ESA. Plasma samples, calibrators and quality control (QC) samples were extracted as follows: Each 0.50 mL aliquot of calibration curve standard, QC or unknown sample was mixed with 0.50 mL of working internal standard (I.S.) stock solution (dihydroxybenzylamine [DHBA], 10 ng/mL) in an ESA extraction tube containing alumina and buffer. The extraction tubes were capped and placed on a rocking shaker for 10 minutes. The tubes were placed on a vacuum manifold and the liquid was aspirated to waste. Each tube was then filled with wash solution which was aspirated to waste. Eluting solution (200 μL) was added to each tube. The tubes were capped and vortex-mixed for 10 minutes. The eluting solution was then forced from the tube under pressure into a microcentrifuge tube. The samples were centrifuged for 15 minutes, transferred to an autosampler vial and a 50 μl aliquot was injected into the HPLC.
A freshly prepared standard curve was analyzed along with samples on each day of analysis. […] Calibrator concentrations were 0.5, 1, 2, 4, 8, 12, 16 and 20 ng/mL as determined in the validation study. […] For the determination of unknown sample concentrations, two standard curve ranges were used; 0.5 to 20 ng/mL and 12 to […]. Values of unknown samples less than or equal to 20 ng/mL were reported from the lower range, and values greater than 20 ng/mL were reported from the higher range.
Elimination half-life (T½), maximum concentration (Cmax), time of maximum concentration (Tmax), area under the plasma concentration-time curve from time 0 through the final timepoint (AUC0-t), and area under the plasma concentration-time curve from time 0 extrapolated to infinity (AUC0-∞) were calculated for this study. The noncompartmental model for extravascular administration was used for all pharmacokinetic analyses. The calculation method was linear trapezoidal with linear/log interpolation. The elimination rate constant, lambda z (λz), was determined by WinNonlin using the best fit method.

[4] = rabbits; for Serum glucose level: relative to predose baseline; for Serum potassium levels: relative to predose levels
Experimental: as §1

[5] = rabbit, in vivo, im, 0.3 mg
Experimental: (§2) In a prospective, controlled, 5-way crossover study, five New Zealand white rabbits (mean weight 4.8±0.2 were investigated on five different days at least four weeks apart, using a protocol described previously (Gu et al., 1999). Each rabbit received EP 10 mg, EP 20 mg, and EP 40 mg as sublingual tablets, a placebo sublingual tablet (EP 0 mg) (as set forth in Table VI), and an EP 0.3 mg IM injection in the right thigh from EpiPen.
(§3) Using the same five New Zealand white rabbits (mean weight 4.8±0.2 Kg) as referred to supra, a prospective, controlled, 5-way crossover study was conducted, using a protocol described above (Gu et al., 1999), wherein each rabbit received an EP 40 mg sublingual tablet from each formulation set forth in Table XII and an EP 0.3 mg IM injection in the right thigh from EpiPen.
(§4) An indwelling catheter (OPTIVA 22G 1″, Johnson & Johnson) was inserted into an ear artery 30 min before dosing A 2 ml blood sample was obtained immediately before dosing and at 5, 10, 15, 20, 30, 40, 60, 90, 120, 150 and 180 minutes afterward.
(§5) Blood samples were refrigerated within 1 hour of sampling and centrifuged at 4° C. Plasma was frozen at −20° C. Before analysis, the plasma was thawed at room temperature and EP was extracted by a solid-liquid extraction process, with an efficiency of 70%-80%. […] The low range calibration curve was linear over the range of 0.1 to 1.0 ng/ml with a coefficient of variation of 0.8% at 0.1 ng and 1.4% at 1.0 ng. The high range calibration curve was linear over the range of 1.0 to 10.0 ng/ml with a coefficient of variation of 4.8% at 1.0 ng and 1.1% at 10.0 ng.
(§6) The AUC, Cmax, and Tmax values for each rabbit were compared using repeated measures ANOVA, Tukey-Kramer tests, and paired Students' t-test using NCSS Statistical Analysis Software (NCSS, Kaysville, Utah). Differences were considered to be significant at p<0.05.

in vivo [6] = settings: New Zealand white, rabbit, im, 0.3 mg
Experimental: as §2, §3, §4, §5, §6

[7] = rabbits, 0.3 mg IM, mean ± SD, listed as epinephrine
[8] = rabbits, 15 mg sublingual tablet, N = 1
[9] = rabbits, 15 mg sublingual tablet, mean ± SD
[10] = rabbits, 30 mg sublingual tablet, mean ± SD
[11] = rabbits, 30 mg sublingual tablet, mean ± SD, listed as epinephrine
[12] = rabbits, 60 mg sublingual (2x30 mg tablets), mean ± SD

For `CNC[C@H](O)c1ccc(O)c(O)c1` [EPBT, (−)-3,4-dihydroxy-α-[(methylamino)methyl]benzyl alcohol (+)-tartrate (1:1) salt], the Dissolution of crystals [1] is listed as “incomplete after 5 minutes; also recorded: slow and incomplete at the end of 5 minutes” and the Water solubility [2] is listed as 1 gm in 3 ml water.

For `CNC[C@H](O)c1ccc(O)c(O)c1` [Epinephrine], the AUC(0-inf) (in vivo [3]; 15 mg) was 196 ng·h/mL, the AUC(0-t) (in vivo [3]; 15 mg) was 74.9 ng·h/mL and the Cmax (in vivo [3]; 15 mg) was 119 ± 131 ng/mL. For the same compound, the Tmax (in vivo [3]; 15 mg) was 59.2 min, the half-life (in vivo [3]; 15 mg) was 181 ± 36.3 min and the AUC(0-inf) (in vivo [3]; 30 mg) was 86.7 ng·h/mL. It also gave an AUC(0-t) (in vivo [3]; 30 mg) of 82.3 ng·h/mL, a Cmax (in vivo [3]; 30 mg) of 142 ± 192 ng/mL and a Tmax (in vivo [3]; 30 mg) of 36.7 min. For the same compound, the half-life (in vivo [3]; 30 mg) was 86.3 ± 60.5 min, the AUC(0-inf) (in vivo [3]; 60 mg) was 300 ng·h/mL and the AUC(0-t) (in vivo [3]; 60 mg) was 242 ng·h/mL. The Cmax (in vivo [3]; 60 mg) was 234 ± 182 ng/mL, the Tmax (in vivo [3]; 60 mg) was 44.2 min and the half-life (in vivo [3]; 60 mg) was 141 ± 135 min. The AUC(0-inf) (in vivo [3]; im, 0.3 mg) was 78.4 ng·h/mL, the AUC(0-t) (in vivo [3]; im, 0.3 mg) was 54.3 ng·h/mL and the Cmax (in vivo [3]; im, 0.3 mg) was 54.7 ± 28.3 ng/mL. It also gave a Tmax (in vivo [3]; im, 0.3 mg) of 24 min, a half-life (in vivo [3]; im, 0.3 mg) of 91.3 ± 44.3 min and a Cmax1 (in vivo [3]; rabbits, 0.3 mg IM, mean ± SD) of 26.6 ± 9.4 ng/mL. The Cmax2 (in vivo [3]; rabbits, 0.3 mg IM, mean ± SD) was 42.7 ± 18.1 ng/mL, the Tmax1 (in vivo [3]; rabbits, 0.3 mg IM, mean ± SD) was 9.0 ± 2.2 min and the Cmax2 (in vivo [3]; [7]) was 42.7 ± 18.1 ng/mL. For the same compound, the Tmax1 (in vivo [3]; [7]) was 9.0 ± 2.2 min, the Cmax4 (in vivo [3]; [8]) was 55.10 ng/mL and the Tmax4 (in vivo [3]; [8]) was 180.0 min. It also gave a Cmax1 (in vivo [3]; [9]) of 55.4 ± 87.6 ng/mL, a Cmax2 (in vivo [3]; [9]) of 30.4 ± 25.7 ng/mL and a Cmax3 (in vivo [3]; [9]) of 85.2 ± 127.8 ng/mL. It also gave a Tmax1 (in vivo [3]; [9]) of 9.2 ± 2.0 min, a Tmax3 (in vivo [3]; [9]) of 111.7 ± 59.5 min and a Cmax1 (in vivo [3]; [10]) of 147.5 ± 215.7 ng/mL. The Cmax2 (in vivo [3]; [10]) was 82.2 ± 102.1 ng/mL, the Cmax3 (in vivo [3]; [10]) was 45.5 ± 44.3 ng/mL and the Tmax1 (in vivo [3]; [10]) was 8.3 ± 4.1 min. The Cmax2 (in vivo [3]; [11]) was 82.2 ± 102.1 ng/mL, the Tmax1 (in vivo [3]; [11]) was 8.4 ± 4.1 min and the Cmax1 (in vivo [3]; [12]) was 154.0 ± 125.4 ng/mL. The Cmax2 (in vivo [3]; [12]) was 85.4 ± 35.3 ng/mL, the Cmax3 (in vivo [3]; [12]) was 127.8 ± 83.8 ng/mL and the Tmax1 (in vivo [3]; [12]) was 14.2 ± 8.6 min. For the same compound, the Tmax1 (in vivo [3]; rabbits, 60 mg sublingual (2x30 mg tablets), mean ± SD, listed as epinephrine) was 14.2 ± 8.6 min, the Serum glucose level ([4]; 0.3 mg IM) was “increase in serum glucose level” and the Serum potassium levels ([4]; 30 mg sublingual) was “decreased”. The Serum glucose level ([4]; 60 mg sublingual) was “increase in serum glucose level”, the Serum potassium levels ([4]; 60 mg sublingual) was “decreased” and the AUC [5] was 2431 ± 386 ng/mL/min. It also gave a Cmax (in vivo [6]) of 50.3 ± 17.1 ng/mL and a Tmax (in vivo [6]) of 21 min.

For `OC[C@@H](O)[C@@H](O)[C@H](O)[C@H](O)CO` [Mannitol], the Water solubility [2] is given as 1 gm in 5.5 ml water.
